From patent US20230219986A1, “NOVEL AMINOPYRIMIDINE EGFR INHIBITOR” (QILU PHARMACEUTICAL CO., LTD., priority 2020, published 2023)

Key:
[1] = biological target: Ba/F3 De119/T790M/C797S EGFR triple mutant cell line (Homo sapiens, UniProt P00533, T790M/C797S, cells depend on it, form not given); assay: Cell proliferation inhibition experiment (CellTiter-Glo), Ba/F3 De119/T790M/C797S; format: cell-based; settings: Ba/F3 Del19/T790M/C797S EGFR triple mutant cells, 72 hours, Cell Titer-Glo; read-out: Ba/F3 (Del19/T790M/C797S) IC50
[2] = biological target: Ba/F3 L858R/T790M/C797S EGFR triple mutant cell line (Homo sapiens, UniProt P00533, T790M/C797S/L858R, cells depend on it); assay: Cell proliferation inhibition experiment (CellTiter-Glo), Ba/F3 L858R/T790M/C797S; format: cell-based; settings: 72 hours, Cell Titer-Glo, read-out: Ba/F3 (L858R/T790M/C797S) IC50
[3] = biological target: T1, L858R/T790M/C797S triple mutant EGFR (Homo sapiens, UniProt P00533, C797S/L858R/T790M); assay: Enzymology experiment in vitro (HTRF/FRET kinase activity), L858R/T790M/C797S triple mutant EGFR; format: biochemical; settings: HTRF KinEASE-TK, read-out: EGFR (L858R/T790M/C797S) IC50
T1 construct: purchased Signalchem
How it was run: (§1)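 HTRF KinEASE-TK format: EGFR enzyme preincubated with compound 10 min at room temperature, then peptide substrate plus ATP added for 40 min. Detection with EDTA, XL665-streptavidin and Eu³⁺-labeled antibody for 1 h.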

[4] = system: EGFR wild-type cell line A431; assay: Cell proliferation inhibition experiment (CellTiter-Glo), A431; format: cell-based; settings: Homo sapiens, A-431, 72 h, A431 cells, Cell Titer-Glo, read-out: A431 EGFR WT IC50
How it was run: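 A431 cells, 800 per well, were cultured 24 h and then exposed to serially diluted compound (0.1% DMSO final) for 72 h at 37° C., 5% CO2.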

[5] = biological target: T2, wild-type EGFR (Homo sapiens, UniProt P00533); assay: Enzymology experiment in vitro (HTRF/FRET kinase activity), wild-type EGFR; format: biochemical; settings: HTRF KinEASE-TK, read-out: EGFR (WT) IC50
T2 construct: purchased Signalchem
How it was run: as §1

Sequence of Ba/F3 De119/T790M/C797S EGFR triple mutant cell line (P00533 with tags, fused parts or gaps DEL746-750/T790M/C797S, form open): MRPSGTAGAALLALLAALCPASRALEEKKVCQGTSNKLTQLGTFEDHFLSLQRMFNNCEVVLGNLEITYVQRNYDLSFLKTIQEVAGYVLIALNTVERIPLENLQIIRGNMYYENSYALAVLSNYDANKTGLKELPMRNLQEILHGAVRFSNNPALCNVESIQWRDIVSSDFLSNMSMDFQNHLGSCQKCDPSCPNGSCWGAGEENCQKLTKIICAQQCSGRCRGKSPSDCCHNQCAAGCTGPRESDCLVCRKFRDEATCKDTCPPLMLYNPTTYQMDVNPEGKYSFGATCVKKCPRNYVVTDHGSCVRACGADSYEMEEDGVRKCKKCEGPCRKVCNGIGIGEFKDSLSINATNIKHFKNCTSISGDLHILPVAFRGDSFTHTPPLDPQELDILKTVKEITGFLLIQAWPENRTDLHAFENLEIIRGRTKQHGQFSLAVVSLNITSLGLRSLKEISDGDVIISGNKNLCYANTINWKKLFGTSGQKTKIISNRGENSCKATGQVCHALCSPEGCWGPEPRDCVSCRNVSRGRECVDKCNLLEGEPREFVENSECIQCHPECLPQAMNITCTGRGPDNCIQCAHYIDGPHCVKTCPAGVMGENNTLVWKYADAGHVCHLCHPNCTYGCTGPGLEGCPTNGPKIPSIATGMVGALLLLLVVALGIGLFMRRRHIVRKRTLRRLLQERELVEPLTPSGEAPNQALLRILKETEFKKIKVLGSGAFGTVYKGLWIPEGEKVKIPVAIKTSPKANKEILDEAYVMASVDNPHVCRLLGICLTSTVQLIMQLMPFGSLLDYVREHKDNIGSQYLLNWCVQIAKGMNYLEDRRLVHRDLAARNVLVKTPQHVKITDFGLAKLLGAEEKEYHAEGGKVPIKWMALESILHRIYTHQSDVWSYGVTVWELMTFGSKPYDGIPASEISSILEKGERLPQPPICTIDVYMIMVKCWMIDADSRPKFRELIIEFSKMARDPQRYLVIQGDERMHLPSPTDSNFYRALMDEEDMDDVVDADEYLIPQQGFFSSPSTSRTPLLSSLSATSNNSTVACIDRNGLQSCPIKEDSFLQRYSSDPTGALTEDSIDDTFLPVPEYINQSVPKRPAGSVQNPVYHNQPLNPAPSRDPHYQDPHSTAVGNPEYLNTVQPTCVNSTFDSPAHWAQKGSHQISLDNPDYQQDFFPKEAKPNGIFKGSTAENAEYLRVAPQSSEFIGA
Sequence of Ba/F3 L858R/T790M/C797S EGFR triple mutant cell line (P00533 whole entry T790M/C797S/L858R): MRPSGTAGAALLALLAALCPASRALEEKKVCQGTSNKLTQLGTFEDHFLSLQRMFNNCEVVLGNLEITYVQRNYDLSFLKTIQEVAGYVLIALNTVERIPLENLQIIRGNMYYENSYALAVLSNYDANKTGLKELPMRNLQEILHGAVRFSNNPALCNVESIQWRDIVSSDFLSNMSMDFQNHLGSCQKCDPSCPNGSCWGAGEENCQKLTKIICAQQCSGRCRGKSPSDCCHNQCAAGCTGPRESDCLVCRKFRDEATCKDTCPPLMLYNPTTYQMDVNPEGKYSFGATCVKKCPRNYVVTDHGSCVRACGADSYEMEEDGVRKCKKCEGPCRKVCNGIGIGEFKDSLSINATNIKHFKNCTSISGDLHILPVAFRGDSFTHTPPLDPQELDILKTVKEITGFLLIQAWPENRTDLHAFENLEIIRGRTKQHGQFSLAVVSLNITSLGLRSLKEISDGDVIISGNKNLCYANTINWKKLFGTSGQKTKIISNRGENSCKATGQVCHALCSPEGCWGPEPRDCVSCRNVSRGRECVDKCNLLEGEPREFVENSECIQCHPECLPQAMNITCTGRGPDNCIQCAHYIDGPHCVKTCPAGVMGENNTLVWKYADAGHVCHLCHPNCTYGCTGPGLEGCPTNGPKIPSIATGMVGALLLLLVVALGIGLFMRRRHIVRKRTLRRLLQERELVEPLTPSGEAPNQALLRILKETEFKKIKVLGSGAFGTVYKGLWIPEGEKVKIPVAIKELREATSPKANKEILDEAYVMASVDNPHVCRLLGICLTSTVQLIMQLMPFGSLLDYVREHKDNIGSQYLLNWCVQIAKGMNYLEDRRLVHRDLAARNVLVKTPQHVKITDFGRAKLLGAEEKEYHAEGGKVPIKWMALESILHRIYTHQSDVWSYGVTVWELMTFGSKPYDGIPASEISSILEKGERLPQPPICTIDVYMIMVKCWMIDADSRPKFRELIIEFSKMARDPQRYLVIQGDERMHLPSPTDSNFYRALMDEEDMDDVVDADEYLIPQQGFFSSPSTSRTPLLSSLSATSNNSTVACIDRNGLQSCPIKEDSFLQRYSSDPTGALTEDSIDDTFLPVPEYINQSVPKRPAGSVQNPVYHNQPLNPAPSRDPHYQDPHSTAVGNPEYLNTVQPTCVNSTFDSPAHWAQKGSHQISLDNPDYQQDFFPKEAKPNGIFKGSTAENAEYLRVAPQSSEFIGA
T2 sequence (P00533 25-1210): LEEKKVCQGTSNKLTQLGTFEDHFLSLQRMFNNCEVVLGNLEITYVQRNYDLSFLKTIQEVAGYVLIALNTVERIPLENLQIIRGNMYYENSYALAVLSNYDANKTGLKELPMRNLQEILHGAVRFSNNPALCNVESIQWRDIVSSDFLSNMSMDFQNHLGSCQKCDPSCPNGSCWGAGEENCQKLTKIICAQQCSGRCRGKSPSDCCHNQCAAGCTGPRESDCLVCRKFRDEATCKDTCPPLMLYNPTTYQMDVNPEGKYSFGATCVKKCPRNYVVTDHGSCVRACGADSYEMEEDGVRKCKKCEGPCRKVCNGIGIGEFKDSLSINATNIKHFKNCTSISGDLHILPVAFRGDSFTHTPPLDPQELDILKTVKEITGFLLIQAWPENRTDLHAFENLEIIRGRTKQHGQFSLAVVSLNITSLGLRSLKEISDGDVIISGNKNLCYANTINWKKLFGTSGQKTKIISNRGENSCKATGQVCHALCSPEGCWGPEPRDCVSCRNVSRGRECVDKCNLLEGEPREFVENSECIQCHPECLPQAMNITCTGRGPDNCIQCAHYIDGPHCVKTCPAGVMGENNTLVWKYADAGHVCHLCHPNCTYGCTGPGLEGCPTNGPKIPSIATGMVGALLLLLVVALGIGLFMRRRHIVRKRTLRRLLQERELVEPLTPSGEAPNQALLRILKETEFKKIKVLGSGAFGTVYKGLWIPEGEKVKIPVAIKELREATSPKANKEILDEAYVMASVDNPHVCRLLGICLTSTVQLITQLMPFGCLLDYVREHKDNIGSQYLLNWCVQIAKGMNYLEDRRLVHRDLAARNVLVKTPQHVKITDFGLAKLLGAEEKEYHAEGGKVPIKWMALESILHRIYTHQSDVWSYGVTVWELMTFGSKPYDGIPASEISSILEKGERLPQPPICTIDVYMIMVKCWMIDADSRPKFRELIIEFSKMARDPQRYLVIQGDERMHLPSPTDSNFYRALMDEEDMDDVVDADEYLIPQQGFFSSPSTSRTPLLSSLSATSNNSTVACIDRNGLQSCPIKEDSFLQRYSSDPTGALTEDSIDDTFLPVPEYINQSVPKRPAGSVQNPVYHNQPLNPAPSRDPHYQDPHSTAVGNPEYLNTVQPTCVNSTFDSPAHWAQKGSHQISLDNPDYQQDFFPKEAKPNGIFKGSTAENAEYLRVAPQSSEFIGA
T1 sequence (P00533 25-1210 T790M/C797S/L858R): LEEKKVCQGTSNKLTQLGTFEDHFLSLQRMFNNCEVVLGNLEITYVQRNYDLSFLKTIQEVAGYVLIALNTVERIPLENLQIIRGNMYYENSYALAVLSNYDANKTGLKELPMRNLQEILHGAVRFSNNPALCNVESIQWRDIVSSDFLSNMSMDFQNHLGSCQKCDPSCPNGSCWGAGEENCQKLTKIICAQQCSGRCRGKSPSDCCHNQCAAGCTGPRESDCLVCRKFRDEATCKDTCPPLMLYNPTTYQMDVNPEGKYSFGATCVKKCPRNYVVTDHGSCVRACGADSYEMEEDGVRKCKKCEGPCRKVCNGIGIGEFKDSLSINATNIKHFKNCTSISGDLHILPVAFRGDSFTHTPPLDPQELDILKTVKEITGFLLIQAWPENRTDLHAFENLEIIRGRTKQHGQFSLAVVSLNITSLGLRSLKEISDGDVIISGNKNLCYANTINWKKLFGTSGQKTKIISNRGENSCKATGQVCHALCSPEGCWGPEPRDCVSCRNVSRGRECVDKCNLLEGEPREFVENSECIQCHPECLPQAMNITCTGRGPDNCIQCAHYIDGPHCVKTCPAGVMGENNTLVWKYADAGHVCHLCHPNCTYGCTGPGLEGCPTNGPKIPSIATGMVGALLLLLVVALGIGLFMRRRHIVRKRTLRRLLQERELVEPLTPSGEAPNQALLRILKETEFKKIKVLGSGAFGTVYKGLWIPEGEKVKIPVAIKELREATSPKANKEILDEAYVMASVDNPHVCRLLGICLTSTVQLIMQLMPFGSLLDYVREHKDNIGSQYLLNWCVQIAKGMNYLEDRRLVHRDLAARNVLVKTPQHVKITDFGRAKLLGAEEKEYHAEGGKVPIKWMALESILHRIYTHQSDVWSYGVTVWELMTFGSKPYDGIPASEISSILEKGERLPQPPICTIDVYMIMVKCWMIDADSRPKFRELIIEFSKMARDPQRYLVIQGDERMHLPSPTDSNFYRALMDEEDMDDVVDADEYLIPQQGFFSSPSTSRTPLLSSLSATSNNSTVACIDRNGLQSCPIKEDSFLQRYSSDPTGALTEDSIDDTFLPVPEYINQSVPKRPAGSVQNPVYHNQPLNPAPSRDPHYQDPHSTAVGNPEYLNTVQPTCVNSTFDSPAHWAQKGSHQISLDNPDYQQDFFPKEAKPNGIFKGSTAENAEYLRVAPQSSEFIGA

| SMILES | GI50 [1] [nM] | GI50 [2] [nM] | IC50 [3] [nM] | IC50 [4] [nM] | IC50 [5] [nM] |
| --- | --- | --- | --- | --- | --- |
| Cc1nc(N2CCOCC2)c(-c2cnn(C)c2)cc1Nc1ncc(Br)c(Nc2ccc3nccnc3c2P(C)(C)=O)n1 [compound 38] | 10.2 | 32.6 | 0.23 | 295 | 17.8 |
| Cn1cc(-c2cc3c(c(Nc4ncc(Br)c(Nc5ccc6nccnc6c5P(C)(C)=O)n4)c2)OCC3)cn1 [compound 39] | 4.07 | 9.69 | 0.06 | 41.3 | 7.45 |
| COc1cc(C(=O)N(C)C)c(-c2cnn(C)c2)cc1Nc1ncc(Br)c(Nc2ccc3nccnc3c2P(C)(C)=O)n1 [compound 40] | 1130 | 542 | 2.85 | 1180 | 55.3 |
| COc1cc(N2CCOCC2)c(-c2cn(C)nc2C)cc1Nc1ncc(Br)c(Nc2ccc3nccnc3c2P(C)(C)=O)n1 [compound 43] | 16.4 | 29.7 | 0.47 | 880 | 95.3 |
| COc1cc(N2CCOCC2)c(-c2cnn(C)c2)nc1Nc1ncc(C)c(Nc2ccc3nccnc3c2P(C)(C)=O)n1 [compound 71] | 99.4 | 316 | 1.7 | > 10000 | 38.9 |
| COc1cc(N2CCOCC2)c(-c2cnn(C)c2)cc1Nc1ncc(Cl)c(Nc2ccc3nccnc3c2P(C)(C)=O)n1 [compound 72] | 4.54 | 13.5 | 0.2 | 370 | 4.69 |
| COc1cc(C23CCOCC2C3)c(-c2cnn(C)c2)cc1Nc1ncc(Br)c(Nc2ccc3nccnc3c2P(C)(C)=O)n1 (centres unmarked) [compound 77] | 14.4 | 26.4 | 1.24 | 480 | 114 |
| COc1cc(N2CCOCC2)c(-c2cnn(C(F)F)c2)cc1Nc1ncc(Br)c(Nc2ccc3nccnc3c2P(C)(C)=O)n1 [compound 78] | 6.76 | 14.4 | 0.53 | 550 | 45.5 |
| COc1cc(N2CCOCC2)c(-c2cnn(C)c2)cc1Nc1ncc(F)c(Nc2ccc3nccnc3c2P(C)(C)=O)n1 [compound 81] | 19.1 | 32.4 | 0.34 | ≥ 10000 | 7.68 |
| COc1cc(N2CCOCC2)c(-c2cccs2)cc1Nc1ncc(Br)c(Nc2ccc3nccnc3c2P(C)(C)=O)n1 [compound 83] | 34 | 58.9 | 3.95 | 2420 | 1000 |
| COc1cc(F)c(-c2cnn(C)c2)cc1Nc1ncc(Br)c(Nc2ccc3nccnc3c2P(C)(C)=O)n1 [compound 84] | 12.5 | 20.7 | 0.33 | 392 | 16.6 |
| COc1cc(N2CCOCC2)c(-c2cnn(C)c2)cc1Nc1ncc(Br)c(Nc2ccc3c(c2P(C)(C)=O)CC3)n1 [compound 85] | 6.15 | 9.29 | 0.11 | 381 | 9.06 |
| COc1cc(N2CCOCC2)c(-c2ccsc2)cc1Nc1ncc(Br)c(Nc2ccc3nccnc3c2P(C)(C)=O)n1 [compound 86] | 87.8 | 136 | 15.6 | 3060 | 345 |
| CN1CCC2(CC1)CCN(c1nc(OCC(F)(F)F)c(Nc3ncc(Br)c(Nc4ccc5nccnc5c4P(C)(C)=O)n3)cc1-c1cnn(C)c1)CC2 [compound 87] | 5.89 | 14.2 | 0.35 | 178 | 3.47 |
| CCN1CCN(c2cc(OC)c(Nc3ncc(Br)c(Nc4ccc5nccnc5c4P(C)(C)=O)n3)cc2-c2cnn(C)c2)CC1 [compound 89] | 2.33 | 4.16 | 0.11 | 40.9 | 2.11 |
| COCCN1CCN(c2cc(OC)c(Nc3ncc(Br)c(Nc4ccc5nccnc5c4P(C)(C)=O)n3)cc2-c2cnn(C)c2)CC1 [compound 92] | 0.54 | 2.85 | 0.03 | 31.8 | 2.34 |
